From article PMC5697638, “Identification of a Potent Phosphoinositide 3‐Kinase Pan Inhibitor Displaying a Strategic Carboxylic Acid Group and Development of Its Prodrugs” (Chemmedchem, 2017)

Key:
[1] = system: PC3 cells; test: PC3 cell proliferation (MTT); format: cell-based; parameters: key to Cell proliferation: active: Active: able to reduce proliferation to an extent greater than 50 %; inactive: able to reduce proliferation to an extent less than 50 %; conditions: PC3 cells, 10 μM of each prodrug
Method: The biological activity of each prodrug was tested by analyzing their ability to decrease PC3 proliferation as a rapid test to evaluate the PI3Ks inhibitory activity after hydrolysis in a cell‐based assay. […] The choice of using such a cut‐off was due to the intent to identify rapidly which prodrug could be hydrolyzed in the assay to release the active compound. As expected, a good correlation between rate of hydrolysis and cellular activity was observed, and esters 64–68 and 70–73 were determined to be good candidates for topical use. We decided to focus our attention on ester 64, as its half‐life was a good compromise for a prodrug. The EC50 value of this ester was then evaluated on PC3 cells, and a value of (2.3±0.8) μM was obtained.
Cell proliferation: PC3 cell proliferation was measured with a 3‐(4,5‐dimethyl thiazol‐2‐yl)‐2,5‐diphenyltetrazolium bromide (MTT)‐based colorimetric assay (#11 465 007 001 Roche Diagnostic GmbH, Germany). PC3 cells were seeded in a 96‐well plate at a concentration of 10^4 cells mL^−1. PC3 cells were treated for 72 h with increasing concentrations of 64, and MTT was added. After ON solubilization of the MTT metabolite, formazan, the absorbance (λ=550–600 nm absorbance, with a reference wavelength of 650 nm) of each well was read in a multi‐well reader (Glomax multi detection system, Promega, model number 9301‐010). The percentage of proliferating cells was calculated by relating each absolute value to the control intended as PC3 cells treated with DMSO alone. An IC50 value was then derived by plotting all data on a dose–response curve (Graph Pad software) by using nonlinear regression fit (equation [log agonist] versus response).

[2] = metabolic stability in rat liver microsomes (RLM); format: in vitro ADME; conditions: RLM, 50 μM substrate, with NADPH; for Residual microsomal substrate (t=60 min): LC–UV; for substrate depletion: 60 min
Method: (§1) Twelve esters were prepared (see the Experimental Section for their synthesis and the Supporting Information for chromatographic methods) and evaluated in terms of metabolic stability. For this task, a combined approach based on microsomal and plasmatic stability assays was exploited considering the relevance of the plasmatic and hepatic tissues in esterase activity. Microsomal stability of the selected esters was evaluated by monitoring the disappearance of the substrate incubated in rat liver microsomes (RLM) at 50 μM concentration, in the presence of NADPH. In Table 4, the percentage of the remaining substrate, after incubation (t=60 min), with respect to the initial amount is reported. Overall, the compounds underwent a relevant metabolic transformation, and the substrate depletion ranged from 0 (for 76) to 100 % (for 70). This is mainly due to hydrolysis of the ester function, whereas the metabolites arising from the oxidation catalyzed by the NADPH‐dependent monooxygenase system were negligible from a quantitative point of view. Indeed, the main metabolite formed during the incubation of the esters was corresponding carboxyl derivative 37. […] Moreover, whereas CH2‐pyridin‐4‐yl ester 70 was completely metabolized, corresponding benzyl derivative 65 and piperonyl derivative 72 were more hydrolytically stable, and their residual substrates were 53 and 83 %, respectively. The hydrolytic stability of the selected esters was also evaluated by monitoring the depletion of the substrate incubated at a 50 μM concentration in mouse plasma over a period of 30 min. As expected, the plasmatic metabolic fate of the esters was characterized by the formation of 37 as the only metabolite (see Figure S4). The rate constant k [min^−1], derived for the substrate peak area versus time curve (single‐exponential decay equation—GraphPad Prism software, Inc., San Diego, CA (USA); see Figure S5) was used to calculate the in vitro half‐life t 1/2 [min], and the values are reported in Table 4.
Metabolic stability of PI3K inhibitors in RLM fraction
The standard incubation mixture (500 µL final volume), in 1.5 mL Eppendorf tubes, was carried out in a 50 mM TRIS-HCl buffer (pH 7.4) containing 3.3 mM MgCl2, 1.3 mM NADPNa2, 3.3 mM glucose 6-phosphate, 0.4 Units/mL glucose 6-phosphate dehydrogenase (NADPH regenerating system), acetonitrile as cosolvent (1% of final volume) and 50 µM of substrate. After pre-equilibration of the mixture, an appropriate volume of rat microsomal suspension was added to give a final protein concentration of 1 mg/mL. The mixture was shaken for 1 hour at 37°C and the reaction was quenched by diluting the samples with 500 µL of ice-cold acetonitrile. The samples were then centrifuged at 13,000 rpm for 10 min, and the supernatant was directly injected onto the HPLC column for analysis. Control incubations were performed without microsomes. […]
(§2) A Shimadzu HPLC system (Shimadzu, Kyoto, Japan), consisting of two LC-10AD Vp module pumps, an SLC-10A Vp system controller, an SIL-10AD Vp autosampler, and a DGU-14-A on-line degasser was used for the analysis. All the chromatographic separations were performed on a Phenomenex Luna C18 5µm (150 x 4.6 mm i.d.) (Phenomenex srl, Castel Bolognese, Italy) as a stationary phase protected by a Luna C18 SecurityGuard (Phenomenex srl). The SPD-M10Avp photodiode array detector was used to detect the analyte at 254 nm. LC Solution 1.24 software was used to process the chromatograms. Aliquots (20 µL) of supernatants obtained from incubations were injected onto the HPLC system and eluted with a mobile phase (flow rate: 1 mL/min) consisting of solvent A- 0.5% aqueous formic acid solution and solvent B- acetonitrile/methanol 80:20.
(§3) The eluants were filtered through a 0.45-µm pore size polyvinylidene difluoride membrane […]
(§4) The following gradients programs were used: […]

[3] = stability in mouse plasma; format: in vitro ADME; conditions: 50 μM substrate; for half-life at 50 µM: mouse, mouse plasma, 30 min incubation, 37 °C, read-out: Mouse plasma t 1/2; for hydrolysis by mouse plasma hydrolases: 30 min
Method: as §1, with “4. […]” for “4.”
Stability of PI3K inhibitors in mouse plasma
An aliquot of 460 µL of blank plasma spiked with substrate (50 µM, final concentration, DMSO 5%) was incubated at 37 °C for 30 minutes. Aliquots (70 µL) of the incubation took at 0-2-5-10-20, and 30 minutes were diluted with 140 µL of acetonitrile, homogenized, and centrifuged at 13,000 rpm for five minutes. Supernatants (20 µL) were injected onto HPLC.
as §2, §3, §4

Residual microsomal substrate (t=60 min) [2] | half-life at 50 µM [3] | substrate depletion [2] | hydrolysis by mouse plasma hydrolases [3] | Compound | Cell proliferation [1]
18% | 2.5 min | – | – | O=C(OCCN1CCOCC1)c1cccc(Cn2cc(-c3cccc4c(=O)cc(N5CCOCC5)[nH]c34)nn2)c1 [Compound 71, 2‐Morpholinoethyl 3‐{[4‐(2‐morpholino‐4‐oxo‐1,4‐dihydroquinolin‐8‐yl)‐1H‐1,2,3‐triazol‐1‐yl]methyl}benzoate] | active
24% | – | – | – | CCOC(=O)c1cccc(Cn2cc(-c3cccc4c(=O)cc(N5CCOCC5)[nH]c34)nn2)c1 [Compound 67, Ethyl 3‐{[4‐(2‐morpholino‐4‐oxo‐1,4‐dihydroquinolin‐8‐yl)‐1H‐1,2,3‐triazol‐1‐yl]methyl}benzoate] | active
53% | < 1 min | – | – | CCCCOC(=O)c1cccc(Cn2cc(-c3cccc4c(=O)cc(N5CCOCC5)[nH]c34)nn2)c1 [Compound 68, Butyl 3‐{[4‐(2‐morpholino‐4‐oxo‐1,4‐dihydroquinolin‐8‐yl)‐1H‐1,2,3‐triazol‐1‐yl]methyl}benzoate] | active
39% | < 1 min | – | – | CC(C)CCOC(=O)c1cccc(Cn2cc(-c3cccc4c(=O)cc(N5CCOCC5)[nH]c34)nn2)c1 [Compound 73, Isopentyl 3‐{[4‐(2‐morpholino‐4‐oxo‐1,4‐dihydroquinolin‐8‐yl)‐1H‐1,2,3‐triazol‐1‐yl]methyl}benzoate] | active

The remaining lines, values behind:

Compound | Residual microsomal substrate (t=60 min) [2] | half-life at 50 µM [3] | substrate depletion [2] | hydrolysis by mouse plasma hydrolases [3] | Cell proliferation [1]
O=C(OCc1ccc2c(c1)OCO2)c1cccc(Cn2cc(-c3cccc4c(=O)cc(N5CCOCC5)[nH]c34)nn2)c1 [Compound 72, Benzo[d][1,3]dioxol‐5‐yl methyl 3‐{[4‐(2‐morpholino‐4‐oxo‐1,4‐dihydroquinolin‐8‐yl)‐1H‐1,2,3‐triazol‐1‐yl]methyl}benzoate] | 83% | < 1 min | – | – | active
O=C(OCc1ccccc1)c1cccc(Cn2cc(-c3cccc4c(=O)cc(N5CCOCC5)[nH]c34)nn2)c1 [Compound 65, Benzyl 3‐{[4‐(2‐morpholino‐4‐oxo‐1,4‐dihydroquinolin‐8‐yl)‐1H‐1,2,3‐triazol‐1‐yl]methyl}benzoate] | 53% | < 1 min | – | – | active
CCCC(C)OC(=O)c1cccc(Cn2cc(-c3cccc4c(=O)cc(N5CCOCC5)[nH]c34)nn2)c1 (stereo not shown) [Compound 74, Pentan‐2‐yl 3‐{[4‐(2‐morpholino‐4‐oxo‐1,4‐dihydroquinolin‐8‐yl)‐1H‐1,2,3‐triazol‐1‐yl]methyl}benzoate] | 60% | 4.2 min | – | – | inactive
CCCCCCCCCCCOC(=O)c1cccc(Cn2cc(-c3cccc4c(=O)cc(N5CCOCC5)[nH]c34)nn2)c1 [Compound 75, Undecyl 3‐{[4‐(2‐morpholino‐4‐oxo‐1,4‐dihydroquinolin‐8‐yl)‐1H‐1,2,3‐triazol‐1‐yl]methyl}benzoate] | 80% | 4.4 min | – | – | inactive
O=C(OCc1ccncc1)c1cccc(Cn2cc(-c3cccc4c(=O)cc(N5CCOCC5)[nH]c34)nn2)c1 [Compound 70, Pyridin‐4‐ylmethyl 3‐{[4‐(2‐morpholino‐4‐oxo‐1,4‐dihydroquinolin‐8‐yl)‐1H‐1,2,3‐triazol‐1‐yl]methyl}benzoate] | 0% | < 1 min | 100% | – | active
CCCCCCCCCCCCCCCCCCOC(=O)c1cccc(Cn2cc(-c3cccc4c(=O)cc(N5CCOCC5)[nH]c34)nn2)c1 [Compound 76, Octadecyl 3‐{[4‐(2‐morpholino‐4‐oxo‐1,4‐dihydroquinolin‐8‐yl)‐1H‐1,2,3‐triazol‐1‐yl]methyl}benzoate] | 100% | – | 0% | inert to the mouse plasma hydrolases | inactive
CC(C)(C)OC(=O)c1cccc(Cn2cc(-c3cccc4c(=O)cc(N5CCOCC5)[nH]c34)nn2)c1 [Compound 69, tert ‐Butyl 3‐{[4‐(2‐morpholino‐4‐oxo‐1,4‐dihydroquinolin‐8‐yl)‐1H‐1,2,3‐triazol‐1‐yl]methyl}benzoate] | 79% | – | – | inert to the mouse plasma hydrolases | inactive
CC(C)OC(=O)c1cccc(Cn2cc(-c3cccc4c(=O)cc(N5CCOCC5)[nH]c34)nn2)c1 [Compound 66, Isopropyl 3‐{[4‐(2‐morpholino‐4‐oxo‐1,4‐dihydroquinolin‐8‐yl)‐1H‐1,2,3‐triazol‐1‐yl]methyl}benzoate] | 16% | 15.1 min | – | – | active
